# Laboratory results taken from ChEMBL document CHEMBL3044927, “Novel 4(3H)-quinazolinone analogs: synthesis and anticonvulsant activity” (Med Chem Res, 2013).
# Calls of active or inactive are those of the source. The rule behind the calls is not given here.
# Columns and labels:
# [1] = system: Mus musculus; assay: Anticonvulsant activity in Swiss albino Mus musculus (mouse) assessed as protection against PTZ-induced seizure at 1.5 mmol/kg, ip administered 30 min prior to PTZ-challenge measured up to 30 min relative to control; assay type: functional
# [2] = system: Mus musculus; assay: Anticonvulsant activity in Swiss albino Mus musculus (mouse) assessed as protection against picrotoxin-induced seizure at 1.5 mmol/kg, ip administered 30 min prior to picrotoxin-challenge measured up to 30 min relative to control; assay type: functional
# [3] = system: Mus musculus; assay: Anticonvulsant activity in Swiss albino Mus musculus (mouse) assessed as protection against bicuculline-induced seizure at 1.5 mmol/kg, ip administered 30 min prior to bicuculline-challenge measured up to 30 min relative to control; assay type: functional
# [4] = system: Mus musculus; assay: Anticonvulsant activity in Swiss albino Mus musculus (mouse) assessed as protection against maximal electric shock-induced seizure at 1.5 mmol/kg, ip administered 30 min prior to maximal electric shock-challenge measured up to 30 min relative to control; assay type: functional
# [5] = system: Mus musculus; assay: Anticonvulsant activity in Swiss albino Mus musculus (mouse) assessed as protection against bicuculline-induced seizure at 0.75 mmol/kg, i.p. administered 30 min prior to bicuculline-challenge measured up to 30 min relative to control; assay type: functional
# [6] = system: Mus musculus; assay: Neurotoxicity against Swiss albino Mus musculus (mouse) at 0.18 mmol/kg, ip measured after 15 to 25 min by chimney test; assay type: toxicity, organism-based; conditions: in vivo
# [7] = system: Mus musculus; assay: Neurotoxicity against Swiss albino Mus musculus (mouse) at 1.5 mmol/kg, ip measured after 15 to 25 min by chimney test; assay type: toxicity, organism-based; conditions: in vivo
# [8] = system: Mus musculus; assay: Neurotoxicity against Swiss albino Mus musculus (mouse) at 0.75 mmol/kg, ip measured after 15 to 25 min by chimney test; assay type: toxicity, organism-based; conditions: in vivo
# [9] = system: Mus musculus; assay: Anticonvulsant activity in Swiss albino Mus musculus (mouse) assessed as protection against maximal electric shock-induced seizure at 0.18 mmol/kg, i.p. administered 30 min prior to maximal electric shock-challenge measured up to 30 min relative to control; assay type: functional
# [10] = Neurotoxicity against ip dosed Swiss albino Mus musculus (mouse) measured after 15 to 25 min by chimney test; assay type: toxicity, organism-based; conditions: in vivo
# [11] = species on record: Mus musculus; assay: Ratio of sodium valporate ED50 to compound ED50 in Swiss albino Mus musculus (mouse) PTZ-seizure model; assay type: functional
# [12] = system: Mus musculus; assay: Anticonvulsant activity in Swiss albino Mus musculus (mouse) assessed as protection against PTZ-induced seizure at 0.75 mmol/kg, ip administered 30 min prior to PTZ-challenge measured up to 30 min relative to control; assay type: functional
# [13] = Therapeutic index, ratio of LD50 to ED50 in Swiss albino Mus musculus (mouse); assay type: organism-based; conditions: in vivo, read-out: Ratio LD50/ED50
# [14] = system: Mus musculus; assay: Anticonvulsant activity in Swiss albino Mus musculus (mouse) assessed as protection against maximal electric shock-induced seizure at 0.37 mmol/kg, i.p. administered 30 min prior to maximal electric shock-challenge measured up to 30 min relative to control; assay type: functional
# [15] = system: Mus musculus; assay: Anticonvulsant activity in Swiss albino Mus musculus (mouse) assessed as protection against picrotoxin-induced seizure at 0.37 mmol/kg, i.p. administered 30 min prior to picrotoxin-challenge measured up to 30 min relative to control; assay type: functional
# [16] = Toxicity against i.p. dosed Swiss albino Mus musculus (mouse) by Sperman-Karber method; assay type: organism-based; conditions: in vivo, ip
# [17] = system: Mus musculus; assay: Neurotoxicity against Swiss albino Mus musculus (mouse) at 0.37 mmol/kg, ip measured after 15 to 25 min by chimney test; assay type: toxicity, organism-based; conditions: in vivo
# [18] = system: Mus musculus; assay: Anticonvulsant activity in Swiss albino Mus musculus (mouse) assessed as protection against maximal electric shock-induced seizure at 0.75 mmol/kg, i.p. administered 30 min prior to maximal electric shock-challenge measured up to 30 min relative to control; assay type: functional
# [19] = system: Mus musculus; assay: Anticonvulsant activity in Swiss albino Mus musculus (mouse) assessed as protection against PTZ-induced seizure at 0.18 mmol/kg, ip administered 30 min prior to PTZ-challenge measured up to 30 min relative to control; assay type: functional
# [20] = system: Mus musculus; assay: Anticonvulsant activity in Swiss albino Mus musculus (mouse) assessed as protection against PTZ-induced seizure at 0.37 mmol/kg, ip administered 30 min prior to PTZ-challenge measured up to 30 min relative to control; assay type: functional
# [21] = system: Mus musculus; assay: Anticonvulsant activity in Swiss albino Mus musculus (mouse) assessed as protection against bicuculline-induced seizure at 0.37 mmol/kg, i.p. administered 30 min prior to bicuculline-challenge measured up to 30 min relative to control; assay type: functional
# [22] = system: Mus musculus; assay: Anticonvulsant activity in Swiss albino Mus musculus (mouse) assessed as protection against picrotoxin-induced seizure at 0.18 mmol/kg, i.p. administered 30 min prior to picrotoxin-challenge measured up to 30 min relative to control; assay type: functional
# [23] = system: Mus musculus; assay: Anticonvulsant activity in Swiss albino Mus musculus (mouse) assessed as protection against bicuculline-induced seizure at 0.18 mmol/kg, i.p. administered 30 min prior to bicuculline-challenge measured up to 30 min relative to control; assay type: functional
# [24] = system: Mus musculus; assay: Anticonvulsant activity in ip dosed Swiss albino Mus musculus (mouse) assessed as protection against PTZ-induced seizure administered 30 min prior to PTZ-challenge measured up to 30 min; assay type: functional
# [25] = system: Mus musculus; assay: Anticonvulsant activity in Swiss albino Mus musculus (mouse) assessed as protection against picrotoxin-induced seizure at 0.75 mmol/kg, i.p. administered 30 min prior to picrotoxin-challenge measured up to 30 min relative to control; assay type: functional
# [26] = species on record: Mus musculus; assay: Protective index, ratio of TD50 for to ED50 in Swiss albino Mus musculus (mouse)
# [27] = Toxicity against Swiss albino Mus musculus (mouse) assessed as mortality at 1.5 mmol/kg, ip; assay type: organism-based; conditions: in vivo, read-out: Activity
# [28] = system: Mus musculus; assay: Anticonvulsant activity in Swiss albino Mus musculus (mouse) assessed as protection against bicuculline-induced seizure at 1.38 mmol/kg, ip administered 30 min prior to bicuculline-challenge measured up to 30 min relative to control; assay type: functional
# [29] = system: Mus musculus; assay: Anticonvulsant activity in Swiss albino Mus musculus (mouse) assessed as protection against picrotoxin-induced seizure at 1.38 mmol/kg, ip administered 30 min prior to picrotoxin-challenge measured up to 30 min relative to control; assay type: functional
# [30] = system: Mus musculus; assay: Anticonvulsant activity in Swiss albino Mus musculus (mouse) assessed as protection against PTZ-induced seizure at 1.38 mmol/kg, ip administered 30 min prior to PTZ-challenge measured up to 30 min relative to control; assay type: functional
# [31] = system: Mus musculus; assay: Anticonvulsant activity in Swiss albino Mus musculus (mouse) assessed as protection against maximal electric shock-induced seizure at 1.38 mmol/kg, ip administered 30 min prior to maximal electric shock-challenge measured up to 30 min relative to control; assay type: functional
compound,measurement,setting,value
O=C(COc1nc(-c2cccs2)nc2ccc(I)cc12)NN1C(=O)c2cccc3cccc(c23)C1=O,Activity,[1],inactive
O=C(COc1nc(-c2cccs2)nc2ccc(I)cc12)NN1C(=O)c2c(Br)c(Br)c(Br)c(Br)c2C1=O,Activity,[1],30%
Cc1ccc2nc(S)n(Cc3ccccc3)c(=O)c2c1,Activity,[1],inactive
O=C1c2cccc3cccc(c23)C(=O)N1Nc1nc2ccc([N+](=O)[O-])cc2c(=O)n1Cc1ccccc1,Activity,[1],30%
O=C1c2c(Cl)c(Cl)c(Cl)c(Cl)c2C(=O)N1n1c(-c2cccs2)nc2ccc(I)cc2c1=O,Activity,[1],inactive
CCOC(=O)CSc1nc2ccc(C)cc2c(=O)n1Cc1ccccc1,Activity,[1],inactive
CCOC(=O)COc1nc(-c2cccs2)nc2ccc(I)cc12,Activity,[1],30%
NNC(=O)COc1nc(-c2cccs2)nc2ccc(I)cc12,Activity,[1],30%
O=C(Nc1ccc(I)cc1C(=O)O)c1cccs1,Activity,[1],inactive
Cc1ccc2nc(SCC(=O)NN3C(=O)c4cccc5cccc(c45)C3=O)n(Cc3ccccc3)c(=O)c2c1,Activity,[2],80%
same,Activity,[3],100%
same,Activity,[4],30%
same,Activity,[1],70%
O=C(COc1nc(-c2cccs2)nc2ccc(I)cc12)NN1C(=O)c2c(Cl)c(Cl)c(Cl)c(Cl)c2C1=O,Activity,[1],30%
O=c1oc(-c2cccs2)nc2ccc(I)cc12,Activity,[1],inactive
O=c1c2cc([N+](=O)[O-])ccc2nc(S)n1Cc1ccccc1,Activity,[1],inactive
Cc1ccc2nc(SCC(=O)NN3C(=O)c4c(Br)c(Br)c(Br)c(Br)c4C3=O)n(Cc3ccccc3)c(=O)c2c1,Activity,[1],inactive
O=C1c2ccccc2C(=O)N1n1c(-c2cccs2)nc2ccc(I)cc2c1=O,Activity,[5],40%
same,Activity,[6],0%
same,Activity,[7],80%
same,Activity,[8],30%
same,Activity,[9],0%
same,TD50,[10],447 mg/kg
same,Ratio ED50,[11],2
same,Activity,[12],70%
same,selectivity ratio,[13],5.5
same,Activity,[14],0%
same,Activity,[15],50%
same,LD50,[16],1380 mg/kg
same,Activity,[3],100%
same,Activity,[17],30%
same,Activity,[18],0%
same,Activity,[19],0%
same,Activity,[20],30%
same,Activity,[21],10%
same,Activity,[22],20%
same,Activity,[4],30%
same,Activity,[23],0%
same,Activity,[1],100%
same,ED50,[24],251 mg/kg
same,Activity,[25],50%
same,Ratio TD50/ED50,[26],1.78
Cc1ccc2nc(SCC(=O)NN3C(=O)c4c(Cl)c(Cl)c(Cl)c(Cl)c4C3=O)n(Cc3ccccc3)c(=O)c2c1,Activity,[1],inactive
Cc1ccc2nc(SCC(=O)NN)n(-c3ccccc3)c(=O)c2c1,mortality,[27],100%
same,Activity,[1],inactive
CCOC(=O)CSc1nc2ccc([N+](=O)[O-])cc2c(=O)n1-c1ccccc1,Activity,[1],inactive
NNc1nc2ccc([N+](=O)[O-])cc2c(=O)n1Cc1ccccc1,Activity,[1],inactive
Cc1ccc2nc(SCC(=O)NN3C(=O)c4c(Br)c(Br)c(Br)c(Br)c4C3=O)n(-c3ccccc3)c(=O)c2c1,Activity,[1],inactive
Cc1ccc2nc(SCC(=O)NN3C(=O)c4ccccc4C3=O)n(-c3ccccc3)c(=O)c2c1,Activity,[1],inactive
CCOC(=O)CSc1nc2ccc([N+](=O)[O-])cc2c(=O)n1Cc1ccccc1,Activity,[1],inactive
O=C(COc1nc(-c2cccs2)nc2ccc(I)cc12)NN1C(=O)c2ccccc2C1=O,Activity,[1],30%
CCOC(=O)CSc1nc2ccc(C)cc2c(=O)n1-c1ccccc1,Activity,[1],inactive
Cc1ccc2nc(SCC(=O)NN3C(=O)c4c(Cl)c(Cl)c(Cl)c(Cl)c4C3=O)n(-c3ccccc3)c(=O)c2c1,Activity,[5],70%
same,Activity,[6],0%
same,Activity,[7],100%
same,Activity,[8],30%
same,Activity,[9],0%
same,TD50,[10],562 mg/kg
same,Activity,[12],50%
same,selectivity ratio,[13],2.82
same,Activity,[14],0%
same,Activity,[15],20%
same,LD50,[16],1290 mg/kg
same,Activity,[3],100%
same,Activity,[17],0%
same,Activity,[18],10%
same,Activity,[19],0%
same,Activity,[20],30%
same,Activity,[21],10%
same,Activity,[4],70%
same,Activity,[23],0%
same,Activity,[1],70%
same,ED50,[24],457 mg/kg
same,Ratio TD50/ED50,[26],1.22
Cn1c(-c2cccs2)nc2ccc(I)cc2c1=O,Activity,[3],100%
same,Activity,[4],0%
same,Activity,[1],100%
O=C1c2c(Br)c(Br)c(Br)c(Br)c2C(=O)N1n1c(-c2cccs2)nc2ccc(I)cc2c1=O,Activity,[1],30%
NNc1nc2ccc([N+](=O)[O-])cc2c(=O)n1-c1ccccc1,Activity,[1],30%
O=c1c2cc([N+](=O)[O-])ccc2nc(S)n1-c1ccccc1,Activity,[1],30%
O=c1[nH]c(-c2cccs2)nc2ccc(I)cc12,Activity,[1],inactive
O=C(Nn1c(-c2cccs2)nc2ccc(I)cc2c1=O)c1ccccc1,Activity,[2],80%
same,Activity,[3],100%
same,Activity,[4],0%
same,Activity,[1],100%
Cc1ccc2nc(SCC(=O)NN3C(=O)CCC3=O)n(Cc3ccccc3)c(=O)c2c1,Activity,[1],30%
Cc1ccc2nc(SCC(=O)NN3C(=O)c4ccccc4C3=O)n(Cc3ccccc3)c(=O)c2c1,Activity,[1],inactive
CCCC(CCC)C(=O)[O-].[Na+] [VALPROATE SODIUM],Activity,[28],100%
same,Activity,[29],100%
same,Activity,[30],100%
same,Activity,[31],100%
Cc1ccc2nc(SCC(=O)NN)n(Cc3ccccc3)c(=O)c2c1,mortality,[27],100%
same,Activity,[1],inactive
Cc1ccc2nc(SCC(=O)NN3C(=O)c4cccc5cccc(c45)C3=O)n(-c3ccccc3)c(=O)c2c1,Activity,[1],inactive
Cc1ccc2nc(S)n(-c3ccccc3)c(=O)c2c1,Activity,[2],80%
same,Activity,[3],100%
same,Activity,[4],0%
same,Activity,[1],70%
O=C1c2cccc3cccc(c23)C(=O)N1n1c(-c2cccs2)nc2ccc(I)cc2c1=O,Activity,[1],inactive
